Consider one compound from US6521615B2, “Diagnosing an animal for pyrophosphate gout, osteoporosis, or osteoarthritis by assaying intracellular pyrophosphate content in peripheral blood cells” (The Regents of the University of California, priority 1998, dated 2003).

The assay concerns human peripheral blood lymphocytes (mononuclear cells). The protocol: Mononuclear Cell Isolation: For this purpose 5 ml of freshly drawn heparinized blood was layered on 3.0 ml of Histopaque in a 15 ml polypropylene centrifuge tube and centrifuged at room temperature for 20 minutes at 1,000 g. The mononuclear cell layer was then removed from the tube and transferred into a new 15-ml tube. Volume was brought to a total of 5 ml by addition of Hanks buffered salt solution lacking Mg and Ca (HBSS). This suspension of cells was again layered onto 3.0 ml of Histopaque and again centrifuged as before.
Resuspension of the centrifuged cells in 12-ml HBSS was repeated three times, each followed by 10 min centrifugation at a lower g of 250 g, 50 g, and 50 g to remove contaminating platelets which carry substantial PPi.
After decanting the supernatant, the cell pellet was resuspended in 1.0 ml of HBSS for counting in a hemocytometer. After counting, the cell suspension was spun for 10 minutes in a microfuge at 14,000 rpm. After decanting and thoroughly removing the supernatant, 3.0 μl of 0.1 M sodium […] (an alkaline phosphatase inhibitor) were added and the cells were lysed by addition of 100 μl of 1% triton X-100 and vortexing. The lysate is then stored frozen at −20° C. until time of assay.
PPi Assay: The assay of PPi in mononuclear cells in Tables 1 and 2 were done by the luminescent methods (Barshop, B A et al. Analyt Biochem (1991) 197:266-272). […] Each sample was assayed in duplicate and in the presence and absence of added pyrophosphate as a recovery test.
Volunteer two was an adult volunteer who had just been scheduled by the same internist to start the same medication for their hypertension.

“Also recorded” adds a separate entry of the source. Where two headings read alike, the source gives them in different places.

In the case of `COc1ccc([C@@H]2Sc3ccccc3N(CCN(C)C)C(=O)[C@@H]2OC(C)=O)cc1` [diltiazem], for the setting “mononuclear cells of peripheral blood, result in words”, the “effect on intracellular concentration of pyrophosphate (PPi)” value is recorded as “lowers the intracellular concentration of pyrophosphate (PPi); also recorded: comparable lowering of mononuclear cells in one of two patients”. Further, the PPi by setting is: (subject one (chondrocalcinosis), diltiazem 60 mg/day taken for only one day, collection 03/13/91) 241 pmole/10^6 cells; (subject one (chondrocalcinosis), diltiazem 60 mg/day, collection 05/16/91) 128 pmole/10^6 cells; (subject three (chondrocalcinosis), diltiazem 60 mg/day, collection 09/11/91) 343 pmole/10^6 cells.
